Results: patent publication US20250205268A1, “TREATMENT OF VIRUSES WITH ANTIVIRAL NUCLEOSIDES” (priority 2021, published 2025)
Where two headings read alike, the source gives them in different places.

Columns and labels:
SARS-CoV-2 [1] = type: in vivo; settings: for WHO Clinical Progression Scale, odds ratio (95% CI): proportional odds model
SARS-CoV-2 [2] = type: in vivo
[3] = type: in vivo, human; settings: adults; age, sex, body size, food, mild-to-moderate renal or mild hepatic impairment
Method: A population pharmacokinetic (popPK) analysis for Compound A exposure was conducted using 4202 NHC plasma concentrations collected in 1207 individuals from a phase 1 study in healthy participants, a phase 2a study in non-hospitalized participants with COVID-19, a Phase 2 study in hospitalized participants with COVID-19, and a Phase 2/3 study in non-hospitalized participants with COVID-19. All studies were randomized, double-blind, placebo-controlled studies of safety, tolerability, and PK of Compound A after oral administration.

SARS-CoV-2 [4] = test system: SARS-CoV-2
[5] = Phase 1 study
SARS-CoV-2 [6] = test system: SARS-CoV-2; remark: listed apart in the source
[7] = MITT population, through day 29
[8] = safety population, all postbaseline visits through day 29
[9] = subgroup hospitalized after randomization, vs placebo

**Q.** Which “WHO Clinical Progression Scale, participants in score category 1-3” value (SARS-CoV-2 [1]; final MITT, Day 15) does the source give for `CC(C)C(=O)OC[C@H]1O[C@@H](n2ccc(NO)nc2=O)[C@H](O)[C@@H]1O` [Compound A, {(2R,3S,4R,5R)-3,4-dihydroxy-5-[4-(hydroxyimino)-2-oxo-3,4-dihydropyrimidin-1 (2H)-yl]oxolan-2-yl}methyl 2-methylpropanoate] here?
**A.** (81.9) %

**Q.** What about the “WHO Clinical Progression Scale, participants in score category 4-5” value (SARS-CoV-2 [1]; final MITT, Day 15) of the same compound?
**A.** (2.2) %

**Q.** What about the “WHO Clinical Progression Scale, participants in score category 6-9” value (SARS-CoV-2 [1]; final MITT, Day 15) of the same compound?
**A.** (0.6) %

**Q.** And the “WHO Clinical Progression Scale, participants in score category 10” value (SARS-CoV-2 [1]; final MITT, Day 15)?
**A.** (0.0) %

**Q.** And the “WHO Clinical Progression Scale, participants in score category 0” value (SARS-CoV-2 [1]; final MITT, Day 29)?
**A.** (48.4) %

**Q.** What about the “WHO Clinical Progression Scale, participants in score category 1-3” value (SARS-CoV-2 [1]; final MITT, Day 29) of the same compound?
**A.** (50.2) %

**Q.** And the “WHO Clinical Progression Scale, participants in score category 4-5” value (SARS-CoV-2 [1]; final MITT, Day 29)?
**A.** (0.9) %

**Q.** And the “WHO Clinical Progression Scale, participants in score category 6-9” value (SARS-CoV-2 [1]; final MITT, Day 29)?
**A.** (0.3) %

**Q.** What about the “WHO Clinical Progression Scale, participants in score category 10” value (SARS-CoV-2 [1]; final MITT, Day 29) of the same compound?
**A.** (0.2) %

**Q.** And the “WHO Clinical Progression Scale, odds ratio (95% CI)” value (SARS-CoV-2 [1]; Day 3)?
**A.** 1.19 (0.62, 2.30)

**Q.** And the “WHO Clinical Progression Scale, odds ratio (95% CI)” value (SARS-CoV-2 [1]; Day 5)?
**A.** 1.52 (0.96, 2.39)

**Q.** What about the “WHO Clinical Progression Scale, odds ratio (95% CI)” value (SARS-CoV-2 [1]; Day 10) of the same compound?
**A.** 1.58 (1.14, 2.20)

**Q.** What about the “WHO Clinical Progression Scale, odds ratio (95% CI)” value (SARS-CoV-2 [1]; Day 15) of the same compound?
**A.** 1.36 (1.03, 1.78)

**Q.** What about the “WHO Clinical Progression Scale, odds ratio (95% CI)” value (SARS-CoV-2 [1]; Day 29) of the same compound?
**A.** 1.04 (0.84, 1.29)

**Q.** What about the “proportion of participants who had a COVID-19-related acute care visit” value (SARS-CoV-2 [2]; [7]) of the same compound?
**A.** 6.6%

**Q.** And the “proportion of participants who had an acute care visit” value (SARS-CoV-2 [2]; [7])?
**A.** 7.2%

**Q.** And the “RRR, COVID-19-related acute care visit” value (SARS-CoV-2 [2]; MITT population, vs placebo)?
**A.** 33.8%

**Q.** What about the “RRR, acute care visit” value (SARS-CoV-2 [2]; MITT population, vs placebo) of the same compound?
**A.** 32.1%

**Q.** What about the “RRR, all respiratory interventions” value (SARS-CoV-2 [2]; MITT population, vs placebo) of the same compound?
**A.** 34.3%

**Q.** What about the “RRR, high-flow heated and humidified device” value (SARS-CoV-2 [2]; MITT population, vs placebo) of the same compound?
**A.** 26.1%

**Q.** And the “RRR, invasive mechanical ventilation” value (SARS-CoV-2 [2]; MITT population, vs placebo)?
**A.** 64.1%

**Q.** And the “RRR, noninvasive mechanical ventilation” value (SARS-CoV-2 [2]; MITT population, vs placebo)?
**A.** 75.4%

**Q.** What about the “RRR, oxygen therapy with conventional oxygen” value (SARS-CoV-2 [2]; MITT population, vs placebo) of the same compound?
**A.** 23.6%

**Q.** And the “mean change from baseline in CRP values versus placebo” value (SARS-CoV-2 [2]; [8])?
**A.** earlier and larger reductions

**Q.** What about the “mean change from baseline in SpO2 values versus placebo” value (SARS-CoV-2 [2]; [8]) of the same compound?
**A.** earlier and larger improvements

**Q.** And the “median time to hospital discharge” value (SARS-CoV-2 [2]; subgroup hospitalized after randomization)?
**A.** 9 days

**Q.** What about the “RRR, all respiratory interventions” value (SARS-CoV-2 [2]; [9]) of the same compound?
**A.** 21.3%

**Q.** What about the “RRR, conventional oxygen” value (SARS-CoV-2 [2]; [9]) of the same compound?
**A.** 12.8%

**Q.** And the “RRR, high-flow heated and humidified device” value (SARS-CoV-2 [2]; [9])?
**A.** −4.7%

**Q.** And the “RRR, invasive mechanical ventilation” value (SARS-CoV-2 [2]; [9])?
**A.** 49.2%

**Q.** And the “RRR, noninvasive mechanical ventilation” value (SARS-CoV-2 [2]; [9])?
**A.** 65.1%

**Q.** What about the “need for dose adjustment” value [3] of the same compound?
**A.** without dose adjustment

**Q.** And the tolerability (SARS-CoV-2 [4]; 5-day course up to 800 mg twice daily)?
**A.** well tolerated

**Q.** What about the “Median time to sustained recovery” value (SARS-CoV-2 [4]; all arms, hospitalized) of the same compound?
**A.** 9 days

**Q.** What about the “day 29 recovery rates” value (SARS-CoV-2 [4]; all arms, hospitalized) of the same compound?
**A.** 81.5%-85.2%

**Q.** And the “hematologic toxicity based on prespecified adverse events” value (SARS-CoV-2 [4]; all doses)?
**A.** no evidence of hematologic toxicity

**Q.** And the clinical benefit (SARS-CoV-2 [4]; hospitalized patients with COVID-19)?
**A.** clinical benefit was not observed

**Q.** And the “participants with undetectable SARS-CoV-2 RNA at day 10, more than placebo” value (SARS-CoV-2 [4]; participants with ≤5 days since sign/symptom onset)?
**A.** 14.3%-36.4%

**Q.** What about the “number of doses sufficient to demonstrate efficacy” value (H1N1; administered every 12 hours, ferret model of influenza) of the same compound?
**A.** Three

**Q.** What about the “dose demonstrating efficacy against H1N1” value (H1N1; ferrets) of the same compound?
**A.** 7 mg/kg BID

**Q.** And the hematological laboratory tests [5]?
**A.** no clinically significant abnormalities

**Q.** What about the liver parameters ([5]; any dose) of the same compound?
**A.** No clinically significant abnormalities in liver parameters

**Q.** What about the serum lipase ([5]; at least 3 days after last dose, not dose related) of the same compound?
**A.** Transient elevations of serum lipase

**Q.** What about the “participants with serious adverse events resulting in hospitalization” value (400-mg group) of the same compound?
**A.** 3.2%

**Q.** And the “participants with serious adverse events resulting in hospitalization” value (800-mg group)?
**A.** 1.8%

**Q.** What about the “incidence of treatment-associated adverse events” value (800-mg group compared with the other groups) of the same compound?
**A.** lowest

**Q.** What about the “adverse events that led to discontinuation” value (Compound A groups combined) of the same compound?
**A.** 1.4%

**Q.** What about the adverse events (all doses, similar to placebo) of the same compound?
**A.** few, and mainly low-grade

**Q.** What about the “Grade 3 or higher adverse events” value (combined Compound A groups) of the same compound?
**A.** 5.0%

**Q.** What about the “hematology or clinical chemistry data” value (during the study) of the same compound?
**A.** no dose-related trends

**Q.** And the “hematological, pancreatic, or hepatic parameters” value (SARS-CoV-2 [6]; Part 1, as a function of dose or treatment)?
**A.** no clinically meaningful abnormalities

**Q.** And the dose-limiting toxicity (SARS-CoV-2 [6]; highest dose (800 mg), eDMC review of IA2 data)?
**A.** no dose-limiting toxicity was observed

**Q.** What about the “SARS-CoV-2 VL compared with placebo” value (SARS-CoV-2 [6]; in vivo) of the same compound?
**A.** reduces the SARS-CoV-2 VL compared with placebo

**Q.** And the tolerability (SARS-CoV-2 [6]; non-hospitalized participants in Part 1)?
**A.** well-tolerated
